Data published in patent US20040255343A1, “Caspase-9 deficient animals and the use thereof” (priority 1998, published 2004).

Tests used:
Caspase-9 −/− thymocytes [1] = experiment: DNA fragmentation assay (DNA laddering on agarose gel); assay type: cell-based, mice
Experimental: (§1) Thymocytes were isolated from wild type and Caspase9 −/− mice. One million cells were treated with 2 μM dexamethasone (Sigma), 1 μM staurosporine (Sigma), 1 μg/ml anti-mouse Fas antibody (PharMingen) plus […] cycloheximide (Sigma), or 10% FCS medium only for 6 hr or 24 hr. Samples were stained with Annexin V (Boehringer Mannheim) and 7-aminoactinomycin D (7-AAD) (Sigma) to label apoptotic cells for FACS Sort (Becton Dickinson).
DNA was isolated using a DNA isolation kit (LeMax Biotech) and subjected to electrophoresis on a 2% agarose gel. Gels were stained by ethidium bromide and images were taken by a scanner.

Caspase-9 −/− thymocytes [2] = experiment: Apoptosis assay using thymocytes (Annexin V / 7-AAD, FACS); assay type: cell-based, mice; conditions: Caspase-9 −/− thymocytes vs wild type; 2 μM dexamethasone, 1 μM staurosporine or 1 μg/ml anti-mouse Fas antibody plus cycloheximide; 6 hr or 24 hr
Excerpt: To investigate the role of Caspase-9 in apoptosis pathways in other systems, we used primary cultures of thymocytes. Although thymocytes from Caspase9 −/− animals developed normally with no differences in the number of thymocytes or in the ratio of surface markers such as CD4, CD8 or CD3 (data not shown), we challenged the thymocytes with several apoptotic stimuli: dexamethasone, staurosporine, and anti-Fas antibody
as §1

## CN[C@@H]1C[C@H]2O[C@@](C)([C@@H]1OC)n1c3ccccc3c3c4c(c5c6ccccc6n2c5c31)C(=O)NC4 [staurosporine]
Caspase-9 −/− thymocytes [1]; Caspase-9 deficient thymocytes, up to 24 hours of treatment
  DNA laddering: DNA laddering was also eliminated
Caspase-9 −/− thymocytes [1]; Caspase-9 −/− thymocytes, 36 and 48 hours of continual treatment (data not shown)
  DNA cleavage after long-term treatment: did begin to cleave their DNA
Caspase-9 −/− thymocytes [2]
  thymocyte survival / induced cell death: reduced survival which was comparable to the death seen in controls
